# Source: patent US20060063179A1, “MIFL- a new partner gene of MLL and methods of use thereof” (priority 2004, published 2006)
# Target: human DNA topoisomerase II (Homo sapiens, UniProt P11388)
# Assay: DNA topoisomerase II in vitro cleavage assay
# Assay type: biochemical
# Settings: singly 5' end-labeled MLL intron 8 and MIFL intron 8 substrates; 147 nM enzyme, 1 mM ATP, 20 μM drug, 10 min 37° C.
# Description: FIGS. 8A-8D provide images of autoradiographs depicting MLL bcr positions 5382-5570 (FIGS. 8A and 8B) or positions 1387 to 1424 in MIFL intron 8 (FIGS. 8C and 8D) identified utilizing topoisomerase II in vitro cleavage assays. Autoradiographs show cleavage products after 10 minute incubation at 37° C. of 25 ng (30,000 cpm) singly 5' end-labeled DNA with 147 nM human DNA topoisomerase II, 1 mM ATP and, where indicated, 20 μM etoposide, etoposide catechol, etoposide quinone or doxorubicin (FIGS. 8A and 8C), or lower doxorubicin concentrations (FIGS. 8B and 8D). Specified reactions were incubated for an additional 10 minutes at 75° C. before trapping the covalent complexes (FIGS. 8A and 8C). The 5' side (-1 position) of the cleavage sites are shown by the dashes at far right. Fragments of the MLL bcr spanning positions 5382-5570 in intron 8 or fragments of MIFL spanning positions 1309-1479 in intron 8 were subcloned into BamHI-NotI sites of TOPO pCR2.1 (Invitrogen). Twenty micrograms of plasmid DNA first was treated with 400 units T4 DNA ligase (New England Biolabs; Beverly, Mass.) for 1 hour to ensure that the substrates were not nicked. […] Calf intestinal phosphatase was inactivated in 5 mM EDTA (pH 8.0) and the DNA was PCI-extracted and ethanol precipitated. The DNA was then 5' end-labeled with [γ-^32P]ATP (Amersham; Arlington Heights, Ill.) and T4 polynucleotide kinase (New England Biolabs) as described (Felix et al. (1995) Cancer Res., 55:4287-92). Alternatively, to prepare cold substrate DNA, 20 μg of BamHI/NotI-digested, dephosphorylated plasmid were phosphorylated with 10 μM ATP (Boehringer Mannheim; Indianapolis, Ind.) in otherwise similar reactions. […] DNA recovery was quantitated by optical density measurement and scintillation counting. […] Cleavage products were visualized by autoradiography and quantitated using a PhosphorImager and ImageQuant software (Molecular Dynamics; Sunnyvale, Calif.).
# Chain of human DNA topoisomerase II (P11388 whole entry): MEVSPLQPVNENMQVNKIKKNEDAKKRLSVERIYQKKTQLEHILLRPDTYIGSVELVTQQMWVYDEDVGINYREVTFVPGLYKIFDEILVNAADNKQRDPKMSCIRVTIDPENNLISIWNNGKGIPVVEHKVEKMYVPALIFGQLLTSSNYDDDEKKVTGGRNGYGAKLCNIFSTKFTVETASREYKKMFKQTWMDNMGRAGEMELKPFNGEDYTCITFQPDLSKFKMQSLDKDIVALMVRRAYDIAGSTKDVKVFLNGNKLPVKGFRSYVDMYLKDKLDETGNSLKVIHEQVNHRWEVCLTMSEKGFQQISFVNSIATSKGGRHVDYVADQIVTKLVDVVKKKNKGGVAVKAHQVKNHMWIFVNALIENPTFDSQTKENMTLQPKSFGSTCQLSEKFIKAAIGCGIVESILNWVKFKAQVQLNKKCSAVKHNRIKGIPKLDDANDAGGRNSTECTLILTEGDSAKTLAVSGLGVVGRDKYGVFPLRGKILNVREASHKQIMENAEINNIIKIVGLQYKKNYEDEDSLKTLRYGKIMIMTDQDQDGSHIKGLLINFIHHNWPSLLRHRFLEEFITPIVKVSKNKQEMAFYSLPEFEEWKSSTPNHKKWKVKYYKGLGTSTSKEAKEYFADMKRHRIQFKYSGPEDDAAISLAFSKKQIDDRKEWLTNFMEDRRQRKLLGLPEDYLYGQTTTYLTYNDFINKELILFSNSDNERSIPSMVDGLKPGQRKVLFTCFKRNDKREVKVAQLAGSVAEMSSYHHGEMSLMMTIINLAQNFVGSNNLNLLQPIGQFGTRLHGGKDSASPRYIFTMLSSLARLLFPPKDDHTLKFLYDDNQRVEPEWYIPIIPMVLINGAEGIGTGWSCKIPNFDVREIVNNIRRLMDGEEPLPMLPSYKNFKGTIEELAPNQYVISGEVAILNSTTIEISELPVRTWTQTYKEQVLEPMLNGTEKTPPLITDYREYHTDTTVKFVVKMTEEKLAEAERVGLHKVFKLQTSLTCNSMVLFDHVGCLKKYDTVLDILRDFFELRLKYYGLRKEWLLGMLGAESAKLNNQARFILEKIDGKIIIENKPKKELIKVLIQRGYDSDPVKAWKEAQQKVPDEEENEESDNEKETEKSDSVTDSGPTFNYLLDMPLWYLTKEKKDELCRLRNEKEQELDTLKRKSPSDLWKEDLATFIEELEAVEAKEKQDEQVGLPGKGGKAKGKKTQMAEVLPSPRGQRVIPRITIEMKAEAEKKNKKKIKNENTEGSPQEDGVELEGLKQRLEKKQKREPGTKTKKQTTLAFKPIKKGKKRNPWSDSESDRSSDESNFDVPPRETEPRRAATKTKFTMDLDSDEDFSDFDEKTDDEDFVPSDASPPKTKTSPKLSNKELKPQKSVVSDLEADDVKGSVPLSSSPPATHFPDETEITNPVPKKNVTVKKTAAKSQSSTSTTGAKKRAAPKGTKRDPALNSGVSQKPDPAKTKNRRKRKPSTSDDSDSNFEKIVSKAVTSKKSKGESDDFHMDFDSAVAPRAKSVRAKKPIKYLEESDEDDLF
row,SMILES,formation of DNA topoisomerase II cleavage complexes at or near the translocation breakpoints
1,"COc1cccc2c1C(=O)c1c(O)c3c(c(O)c1C2=O)C[C@@](O)(C(=O)CO)C[C@@H]3O[C@H]1C[C@H](N)[C@H](O)[C@H](C)O1 [dox, doxorubicin]",marginal activity
2,COC1=CC(C2c3cc4c(cc3C(O[C@@H]3O[C@@H]5COC(C)O[C@H]5[C@H](O)[C@H]3O)C3COC(=O)C23)OCO4)=CC(=O)C1=O (stereo partly drawn) [etoposide quinone],increased the formation of DNA topoisomerase II cleavage complexes
3,COc1cc([C@@H]2c3cc4c(cc3[C@@H](O[C@@H]3O[C@@H]5CO[C@@H](C)O[C@H]5[C@H](O)[C@H]3O)[C@H]3COC(=O)[C@H]23)OCO4)cc(OC)c1O [etoposide],increased the formation of DNA topoisomerase II cleavage complexes
